{
  "source": "patent US20220348595A1",
  "about": "“COMPOUNDS AND METHODS FOR THE TARGETED DEGRADATION OF ESTROGEN RECEPTORS” (Endotarget Inc., priority 2021, published 2022)",
  "key": {"ERα": {"target": "T1, ERα (Homo sapiens, UniProt P03372)", "T1 construct": "endogenous in cells; host or cells: MCF-7", "T1 sequence (P03372 1-595)": "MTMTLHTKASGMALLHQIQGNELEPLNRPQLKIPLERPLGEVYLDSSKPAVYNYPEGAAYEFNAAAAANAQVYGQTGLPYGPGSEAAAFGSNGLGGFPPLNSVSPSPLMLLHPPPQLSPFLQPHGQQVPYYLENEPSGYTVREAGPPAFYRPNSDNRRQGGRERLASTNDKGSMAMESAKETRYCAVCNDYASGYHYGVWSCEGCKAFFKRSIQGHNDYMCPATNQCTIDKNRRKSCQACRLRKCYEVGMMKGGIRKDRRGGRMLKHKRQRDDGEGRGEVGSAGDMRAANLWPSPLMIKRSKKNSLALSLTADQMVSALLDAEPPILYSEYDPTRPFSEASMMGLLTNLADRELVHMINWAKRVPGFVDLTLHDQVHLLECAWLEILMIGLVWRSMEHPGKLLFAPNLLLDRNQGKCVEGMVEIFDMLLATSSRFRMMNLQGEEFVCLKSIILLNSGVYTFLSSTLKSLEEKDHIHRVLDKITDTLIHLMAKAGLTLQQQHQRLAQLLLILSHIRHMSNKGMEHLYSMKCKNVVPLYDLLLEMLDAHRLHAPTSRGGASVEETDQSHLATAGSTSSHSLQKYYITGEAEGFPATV", "experiment": "ER degradation in MCF-7 cells (Western blot)", "type": "cell-based", "conditions": "for DC50: ER degradation, 24 hours; for Dmax: MCF7, Maximal ER degradation, read-out: Dmax", "summary_of_the_method": "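MCF-7 cells treated with a range of compound concentrations for 24 hours, then lysed; 50 μg protein probed for ERα by Western blot with infrared imaging. DC50 is concentration giving 50% ER reduction; Dmax is the highest percentage reduction over the range tested.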"}, "ER": {"target": "T2, ER (Homo sapiens, UniProt P03372)", "T2 construct": "endogenous in cells; host or cells: T47d-kb-Luc (T47D stably transfected with a luciferase reporter gene only)", "T2 sequence (P03372 1-595)": "T1 sequence (P03372 1-595)", "experiment": "ER antagonism (T47D ERE luciferase), T47d-kb-Luc cells", "type": "cell-based", "conditions": "read-out: IC50 (ER antagonistm)", "summary_of_the_method": "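Stably transfected T47d-kb-Luc human breast cancer cells were used, and antagonism was measured as inhibition of estradiol-driven activity. Data were normalised to the estradiol control. Five concentrations were tested in quadruplicate across at least three experiments.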"}, "[1]": {"tested_on": "MCF-7 breast cancer cells", "experiment": "MCF-7 proliferation / cell viability assay", "type": "cell-based", "conditions": "Homo sapiens, MCF7; MCF-7 proliferation with 0.1 nM 17-beta estradiol; read-out: IC50 (anti-proliferation)", "summary_of_the_method": "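MCF-7 cells in 5% FBS DMEM were exposed for 5 days to compound at 6 doses from 10^−10 M to 10^−5 M, with DMSO as vehicle. Viable cells were counted by Coulter counter. Survival ratio = treated/vehicle viable cell number, vehicle set to 100%.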"}, "ST1799 PDX tumor": {"tested_on": "ST1799 PDX tumor", "experiment": "ST1799 patient derived breast tumor xenograft", "type": "in vivo", "conditions": "single agent versus vehicle control, p=0.0323; athymic nude female mice", "from_the_text": "In Vivo Efficacy of Exemplary Compound 69 in ST1799 Patient Derived Breast Tumor Xenocraft\nPatient-Derived Xenograft tumor fragments were harvested from host animals and implanted into 6-12 week old athymic nude female mice (Charles River NU(NCr)-Foxn1^nu). Treatment initiated at a mean tumor volume of approximately 175-300 mm^3."}},
  "data": [
    {"smiles": "CC/C(=C(/c1ccc(OCCN2CCN(CC3CCN(c4ccc5c(c4)CN([C@H]4CCC(=O)NC4=O)C5=O)CC3)CC2)cc1)c1ccc(B(O)O)cc1)c1ccccc1", "note": "[Compound 69]", "values": [
      {"measurement": "DC50", "setting": "ERα", "value": "< 0.01", "unit": "µM"},
      {"measurement": "Dmax", "setting": "ERα", "value": "> 90", "unit": "%"},
      {"measurement": "IC50", "setting": "ER", "value": "< 0.01", "unit": "µM"},
      {"measurement": "IC50", "setting": "[1]", "value": "< 0.01", "unit": "µM"},
      {"measurement": "tumor growth inhibition", "setting": "ST1799 PDX tumor", "value": "statistically significant tumor growth inhibition"}
    ]},
    {"smiles": "CC/C(=C(\\c1ccc(B(O)O)cc1)c1ccc(N2CCN(C(=O)N3CCC(CN4CCN(c5ccc6c(c5)CN(C5CCC(=O)NC5=O)C6=O)CC4)CC3)CC2)cc1)c1ccccc1", "note": "(centres unmarked) [Compound 114, (Z)-(4-(1-(4-(4-(4-((4-(2-(2,6-dioxopiperidin-3-yl)-1-oxoisoindolin-5-yl)piperazin-1-yl)methyl)piperidine-1-carbonyl)piperazin-1-yl)phenyl)-2-phenylbut-1-en-1-yl)phenyl)boronic acid]", "values": [
      {"measurement": "DC50", "setting": "ERα", "value": "< 0.01", "unit": "µM"},
      {"measurement": "Dmax", "setting": "ERα", "value": "> 90", "unit": "%"},
      {"measurement": "IC50", "setting": "ER", "value": "< 0.01", "unit": "µM"},
      {"measurement": "IC50", "setting": "[1]", "value": "< 0.01", "unit": "µM"}
    ]},
    {"smiles": "CC/C(=C(/c1ccc(O)cc1)c1ccc(N2CCN(C(=O)N3CCC(CN4CCN(c5ccc6c(c5)CN(C5CCC(=O)NC5=O)C6=O)CC4)CC3)CC2)cc1)c1ccccc1", "note": "(centres unmarked) [Compound 115, (Z)-3-(5-(4-((1-(4-(4-(1-(4-hydroxyphenyl)-2-phenylbut-1-en-1-yl)phenyl)piperazine-1-carbonyl)piperidin-4-yl)methyl)piperazin-1-yl)-1-oxoisoindolin-2-yl)piperidine-2,6-dione]", "values": [
      {"measurement": "DC50", "setting": "ERα", "value": "< 0.01", "unit": "µM"},
      {"measurement": "Dmax", "setting": "ERα", "value": "> 90", "unit": "%"},
      {"measurement": "IC50", "setting": "ER", "value": "< 0.01", "unit": "µM"},
      {"measurement": "IC50", "setting": "[1]", "value": "< 0.01", "unit": "µM"}
    ]},
    {"smiles": "CC/C(=C(/c1ccc(B(O)O)cc1)c1ccc(N2CCN(C(=O)N3CCC(CN4CCN(c5ccc6c(c5)CN(C5CCC(=O)NC5=O)C6=O)CC4)CC3)CC2)cc1)c1ccccc1", "note": "(centres unmarked) [Compound 116, (E)-(4-(1-(4-(4-(4-((4-(2-(2,6-dioxopiperidin-3-yl)-1-oxoisoindolin-5-yl)piperazin-1-yl)methyl)piperidine-1-carbonyl)piperazin-1-yl)phenyl)-2-phenylbut-1-en-1-yl)phenyl)boronic acid]", "values": [
      {"measurement": "DC50", "setting": "ERα", "value": "< 0.01", "unit": "µM"},
      {"measurement": "Dmax", "setting": "ERα", "value": "> 90", "unit": "%"},
      {"measurement": "IC50", "setting": "ER", "value": "< 0.01", "unit": "µM"},
      {"measurement": "IC50", "setting": "[1]", "value": "< 0.01", "unit": "µM"}
    ]}
  ]
}
